Eight molecules from ChEMBL document CHEMBL6109074 (Bioorg Med Chem, 2025) can be followed below.

The structures appear in SMILES notation. Structures can show the parent of a compound that is named as a salt. The source made the active and inactive calls. The calls are words filed in the database; no cut-off is given here.

For assay [1], the target named is T1, Histone acetyltransferase p300/Hypoxia-inducible factor 1-alpha (Homo sapiens, UniProt Q09472+Q16665). Description: Inhibition of HIF-1alpha/p300 PPI (unknown origin). It counts as protein-complex assay.
T1 sequence (Q09472 whole entry, the tested form may be a part): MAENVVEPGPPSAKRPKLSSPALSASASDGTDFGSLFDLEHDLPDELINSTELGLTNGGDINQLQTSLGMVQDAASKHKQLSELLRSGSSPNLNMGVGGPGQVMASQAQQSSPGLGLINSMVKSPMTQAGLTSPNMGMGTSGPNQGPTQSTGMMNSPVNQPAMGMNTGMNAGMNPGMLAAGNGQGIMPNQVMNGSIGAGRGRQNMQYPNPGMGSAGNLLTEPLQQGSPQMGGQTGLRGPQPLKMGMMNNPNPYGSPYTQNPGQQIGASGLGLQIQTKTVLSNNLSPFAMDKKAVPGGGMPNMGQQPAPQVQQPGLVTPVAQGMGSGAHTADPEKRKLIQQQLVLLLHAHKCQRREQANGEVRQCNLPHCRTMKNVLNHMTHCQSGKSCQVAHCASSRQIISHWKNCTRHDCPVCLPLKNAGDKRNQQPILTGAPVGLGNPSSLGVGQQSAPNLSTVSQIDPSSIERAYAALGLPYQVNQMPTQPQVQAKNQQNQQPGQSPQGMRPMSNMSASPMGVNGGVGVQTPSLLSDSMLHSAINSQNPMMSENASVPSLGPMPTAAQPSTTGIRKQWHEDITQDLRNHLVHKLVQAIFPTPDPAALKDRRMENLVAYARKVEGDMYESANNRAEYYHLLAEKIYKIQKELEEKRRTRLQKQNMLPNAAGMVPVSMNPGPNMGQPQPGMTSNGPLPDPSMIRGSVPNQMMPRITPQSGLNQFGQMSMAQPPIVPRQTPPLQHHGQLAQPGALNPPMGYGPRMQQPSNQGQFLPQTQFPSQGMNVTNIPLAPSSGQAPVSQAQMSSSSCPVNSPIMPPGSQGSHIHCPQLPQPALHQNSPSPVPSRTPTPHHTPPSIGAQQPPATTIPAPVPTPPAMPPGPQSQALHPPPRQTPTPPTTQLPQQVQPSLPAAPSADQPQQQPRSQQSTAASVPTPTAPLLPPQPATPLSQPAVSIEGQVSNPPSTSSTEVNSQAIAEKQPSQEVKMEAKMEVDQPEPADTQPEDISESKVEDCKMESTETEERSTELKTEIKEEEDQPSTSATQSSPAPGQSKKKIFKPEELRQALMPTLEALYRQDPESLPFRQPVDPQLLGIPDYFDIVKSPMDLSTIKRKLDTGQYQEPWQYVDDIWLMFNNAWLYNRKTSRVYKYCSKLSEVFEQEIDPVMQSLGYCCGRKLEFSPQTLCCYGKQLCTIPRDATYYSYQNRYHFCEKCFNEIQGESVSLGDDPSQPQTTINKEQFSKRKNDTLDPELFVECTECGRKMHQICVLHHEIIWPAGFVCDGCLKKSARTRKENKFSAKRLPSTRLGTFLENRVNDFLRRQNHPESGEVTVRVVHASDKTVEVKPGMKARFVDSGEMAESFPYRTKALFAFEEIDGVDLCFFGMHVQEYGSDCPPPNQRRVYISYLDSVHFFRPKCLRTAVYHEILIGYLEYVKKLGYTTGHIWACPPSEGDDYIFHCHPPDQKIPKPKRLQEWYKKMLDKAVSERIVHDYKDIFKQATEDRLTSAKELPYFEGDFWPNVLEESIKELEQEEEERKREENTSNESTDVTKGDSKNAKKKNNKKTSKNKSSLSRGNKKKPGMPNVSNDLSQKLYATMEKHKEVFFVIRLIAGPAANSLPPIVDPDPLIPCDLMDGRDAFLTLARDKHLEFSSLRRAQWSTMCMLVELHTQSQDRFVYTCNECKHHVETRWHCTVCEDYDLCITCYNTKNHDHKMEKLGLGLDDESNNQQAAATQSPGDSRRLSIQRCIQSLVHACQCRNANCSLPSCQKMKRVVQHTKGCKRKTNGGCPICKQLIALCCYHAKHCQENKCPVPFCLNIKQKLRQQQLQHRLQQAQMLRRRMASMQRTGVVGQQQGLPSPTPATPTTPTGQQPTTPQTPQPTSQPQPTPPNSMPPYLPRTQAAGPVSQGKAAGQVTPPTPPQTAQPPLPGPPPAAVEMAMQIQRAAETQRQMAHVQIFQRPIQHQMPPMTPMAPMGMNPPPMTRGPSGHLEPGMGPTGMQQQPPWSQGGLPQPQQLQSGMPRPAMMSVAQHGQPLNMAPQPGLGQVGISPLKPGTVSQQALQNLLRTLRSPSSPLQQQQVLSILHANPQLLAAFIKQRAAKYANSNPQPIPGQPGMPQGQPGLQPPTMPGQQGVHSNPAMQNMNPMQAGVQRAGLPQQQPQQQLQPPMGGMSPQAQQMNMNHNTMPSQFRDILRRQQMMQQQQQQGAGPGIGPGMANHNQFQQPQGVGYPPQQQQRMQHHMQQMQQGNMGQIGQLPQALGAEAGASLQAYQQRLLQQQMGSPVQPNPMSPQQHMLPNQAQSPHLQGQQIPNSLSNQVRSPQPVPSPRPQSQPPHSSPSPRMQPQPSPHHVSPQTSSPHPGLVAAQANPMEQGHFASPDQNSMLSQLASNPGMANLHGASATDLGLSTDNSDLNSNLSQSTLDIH
T1 sequence (Q16665 whole entry, the tested form may be a part): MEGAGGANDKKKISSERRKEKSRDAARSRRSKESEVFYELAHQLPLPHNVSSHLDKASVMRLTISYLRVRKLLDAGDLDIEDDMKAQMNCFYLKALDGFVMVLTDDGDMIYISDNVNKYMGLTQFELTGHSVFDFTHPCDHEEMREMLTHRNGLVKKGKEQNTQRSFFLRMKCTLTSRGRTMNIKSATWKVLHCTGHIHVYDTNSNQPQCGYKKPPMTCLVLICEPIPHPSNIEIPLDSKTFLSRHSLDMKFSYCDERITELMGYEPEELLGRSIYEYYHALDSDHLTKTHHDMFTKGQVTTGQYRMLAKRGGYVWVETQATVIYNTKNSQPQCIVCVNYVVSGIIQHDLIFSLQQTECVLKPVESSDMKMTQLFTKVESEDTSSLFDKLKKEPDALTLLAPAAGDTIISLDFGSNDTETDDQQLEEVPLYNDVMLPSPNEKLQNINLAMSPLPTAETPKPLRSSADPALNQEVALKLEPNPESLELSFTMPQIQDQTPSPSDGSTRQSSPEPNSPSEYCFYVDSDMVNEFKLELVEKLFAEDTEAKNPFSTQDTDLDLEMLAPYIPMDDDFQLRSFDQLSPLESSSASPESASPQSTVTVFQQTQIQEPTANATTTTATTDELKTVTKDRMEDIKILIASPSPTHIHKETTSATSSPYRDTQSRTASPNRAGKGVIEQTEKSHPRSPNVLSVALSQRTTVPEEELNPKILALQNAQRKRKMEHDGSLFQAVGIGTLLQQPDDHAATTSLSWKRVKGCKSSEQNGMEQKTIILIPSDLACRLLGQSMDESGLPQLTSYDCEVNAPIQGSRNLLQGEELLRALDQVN
Assay [2] addresses Histone acetyltransferase p300 (Homo sapiens, UniProt Q09472). Description: Inhibition of p300 CH1 domain (unknown origin) by tryptophan fluorescence spectroscopy analysis.
Assay [3] deals with T1, Histone acetyltransferase p300/Hypoxia-inducible factor 1-alpha. Description: Inhibition of HIF-1alpha(unknown origin)/human p300 CH1 domain (323 to 423 residues) PPI extracted from Escherichia coli incubated for 1 hr by SpectraMax iD5 MultiMode microplate reader analysis. It counts as protein-complex assay.
Assay [4] is described as follows: Inhibition of HIF transcriptional activity in human HeLa cells harbouring HRE-luc preincubated for 1 hr under normoxic condition followed by 8 hrs incubation under hypoxic condition by luciferase reporter assay. It counts as cell-based.
The test system of assay [5] is HeLa. Description: Effect on HIF-1alpa protein expression in human HeLa cells at 1 to 100 uM incubated under hypoxia condition for 8 hrs by Western blot analysis. It counts as functional, cell-based. The conditions noted are these: dose 1-100 µM.
Assay [6] relates to HeLa. Description: Effect on HIF-1alpa mRNA expression in human HeLa cells at 1 to 100 uM incubated under hypoxia condition for 8 hrs by real-time analysis. It counts as functional, cell-based. The conditions noted are these: dose 1-100 µM.
Assay [7] relates to HeLa. Description: Downregulation of CAIX mRNA expression in human HeLa cells at 1 to 100 uM incubated under hypoxia condition for 8 hrs by real-time analysis. It counts as functional, cell-based. Conditions: dose 1-100 µM.
The test system of assay [8] is HeLa. Description: Downregulation of BAX mRNA expression in human HeLa cells at 1 to 100 uM incubated under hypoxia condition for 8 hrs by RT-PCR analysis. It counts as functional, cell-based. The conditions noted are these: dose 1-100 µM.
Assay [9] deals with HeLa. Description: Effect on p53 mRNA expression in human HeLa cells at 1 to 100 uM incubated under hypoxia condition for 8 hrs by RT-PCR analysis. It counts as functional, cell-based. Conditions: dose 1-100 µM.
Assay [10] concerns HeLa. Description: Downregulation of c-MYC mRNA expression in human HeLa cells at 1 to 100 uM incubated under hypoxia condition for 8 hrs by RT-PCR analysis. It counts as functional, cell-based. Conditions: dose 1-100 µM.
Assay [11] deals with HeLa. Briefly: Effect on STAT3 mRNA expression in human HeLa cells at 1 to 100 uM incubated under hypoxia condition for 8 hrs by RT-PCR analysis. It counts as functional, cell-based. Conditions: dose 1-100 µM.

Sequence of Histone acetyltransferase p300 (Q09472 whole entry, the tested form may be a part): as the sequence (Q09472 whole entry, the tested form may be a part) above

For the molecule `COC(=O)c1ccc(O)c(NC(=O)COc2ccc(C34CC5CC(CC(C5)C3)C4)cc2)c1`, the 50% inhibitory concentration (IC50) in assay [1] was 4.4 µM.

`CC(C)C[C@@H]1NCCN([C@@H](CC(C)C)C(=O)N2CCN([C@@H](CCC(N)=O)C(N)=O)C(=O)[C@@H]2C)C1=O`: the 50% inhibitory concentration (IC50) turned out to be 0.53 µM in assay [2] and 0.0513 µM in assay [3].

`C[C@@]12C(=O)OC(=O)[C@]1(C)[C@H]1CC[C@@H]2O1` [CANTHARIDIN]: the IC50 in assay [4] stood at 5.63 µM.

`COC1=C(N)C(=O)c2nc(-c3nc(C(=O)O)c(C)c(-c4ccc(OC)c(OC)c4O)c3N)ccc2C1=O` [STREPTONIGRIN]: inhibition in assay [3] was half-maximal at 1.38 µM (IC50).

`[N-]=[N+]=Nc1cc(O)c(C(=O)Nc2ccc([N+](=O)[O-])cc2Cl)cc1Cl`: the result in [5] was inactive.

In the case of `O=C(Nc1ccc([N+](=O)[O-])cc1Cl)c1cc(Cl)ccc1O`, the result in assay [5], in [6], in assay [9] and in [11] was inactive. The result in [7], in assay [8] and in [10] was Active.

Turning to `Fc1ccc(C(c2ccc(F)cc2)N2CCN(C/C=C/c3ccccc3)CC2)cc1` [FLUNARIZINE HYDROCHLORIDE], in [4], half-maximal inhibition (IC50) was put at 9.01 µM.

On to `OCCN1CCN(CCCN2c3ccccc3Sc3ccc(Cl)cc32)CC1` [PERPHENAZINE], for which the IC50 in assay [4] was determined as 14.3 µM. In addition, the outcome in assay [5] was inactive.
